Measured values as given in patent US20260139005A1 (priority 2022, published 2026).
Values after ≈ are worked out from the molar mass of the structure shown. Where a SMILES comes first, the peptide text is derived from it.

These compounds were tested on Fusarium graminearum. Conditions: not given.

Row | Compound | MIC (μM) Fusarium graminearum
1 | TKPCQSDKDCAAAACRKPKVPKCINGFCKCVR [NCR13_AlaV2] | Inactive
2 | TKPCQSDKDCKKFACAAAAVPKCINGFCKCVR [NCR13_AlaV3] | Inactive

Same assay, conditions: 48 h

Row | Compound | MIC (μM) Fusarium graminearum [µM]
3 | CC[C@H](C)[C@H](NC(=O)[C@H](CS)NC(=O)[C@H](CCCCN)NC(=O)[C@@H]1CCCN1C(=O)[C@@H](NC(=O)[C@H](CCCCN)NC(=O)[C@@H]1CCCN1C(=O)[C@H](CCCCN)NC(=O)[C@H](CCCNC(=N)N)NC(=O)[C@H](CS)NC(=O)[C@H](C)NC(=O)[C@H](Cc1ccccc1)NC(=O)[C@H](CCCCN)NC(=O)[C@H](CCCCN)NC(=O)[C@H](CS)NC(=O)[C@H](CC(=O)O)NC(=O)[C@H](CCCCN)NC(=O)[C@H](CC(=O)O)NC(=O)[C@H](CO)NC(=O)[C@H](CCC(N)=O)NC(=O)[C@H](CS)NC(=O)[C@@H]1CCCN1C(=O)[C@H](CCCCN)NC(=O)[C@@H](N)[C@@H](C)O)C(C)C)C(=O)N[C@@H](CC(N)=O)C(=O)NCC(=O)N[C@@H](Cc1ccccc1)C(=O)N[C@@H](CS)C(=O)N[C@@H](CCCCN)C(=O)N[C@@H](CS)C(=O)N[C@H](C(=O)N[C@@H](CCCNC(=N)N)C(=O)O)C(C)C [NCR13, reference compound] (H-TKPCQSDKDCKKFACRKPKVPKCINGFCKCVR-OH; N-terminus and C-terminus assumed) | 6 (≈ 22 µg/mL)
4 | CC[C@H](C)[C@H](NC(=O)[C@H](CS)NC(=O)[C@H](C)NC(=O)[C@H](C)NC(=O)[C@H](C)NC(=O)[C@H](CCCCN)NC(=O)[C@@H]1CCCN1C(=O)[C@H](CCCCN)NC(=O)[C@H](CCCNC(=N)N)NC(=O)[C@H](CS)NC(=O)[C@H](C)NC(=O)[C@H](Cc1ccccc1)NC(=O)[C@H](CCCCN)NC(=O)[C@H](CCCCN)NC(=O)[C@H](CS)NC(=O)[C@H](CC(=O)O)NC(=O)[C@H](CCCCN)NC(=O)[C@H](CC(=O)O)NC(=O)[C@H](CO)NC(=O)[C@H](CCC(N)=O)NC(=O)[C@H](CS)NC(=O)[C@@H]1CCCN1C(=O)[C@H](CCCCN)NC(=O)[C@@H](N)[C@@H](C)O)C(=O)N[C@@H](CC(N)=O)C(=O)NCC(=O)N[C@@H](Cc1ccccc1)C(=O)N[C@@H](CS)C(=O)N[C@@H](CCCCN)C(=O)N[C@@H](CS)C(=O)N[C@H](C(=O)N[C@@H](CCCNC(=N)N)C(=O)O)C(C)C [NCR13_AlaV4] (H-TKPCQSDKDCKKFACRKPKAAACINGFCKCVR-OH; N-terminus and C-terminus assumed) | 12 (≈ 42.6 µg/mL)
5 | CC(C)[C@H](NC(=O)[C@H](CS)NC(=O)[C@H](CCCCN)NC(=O)[C@H](CS)NC(=O)[C@H](C)NC(=O)[C@H](C)NC(=O)[C@H](C)NC(=O)[C@H](C)NC(=O)[C@H](CS)NC(=O)[C@H](CCCCN)NC(=O)[C@@H]1CCCN1C(=O)[C@@H](NC(=O)[C@H](CCCCN)NC(=O)[C@@H]1CCCN1C(=O)[C@H](CCCCN)NC(=O)[C@H](CCCNC(=N)N)NC(=O)[C@H](CS)NC(=O)[C@H](C)NC(=O)[C@H](Cc1ccccc1)NC(=O)[C@H](CCCCN)NC(=O)[C@H](CCCCN)NC(=O)[C@H](CS)NC(=O)[C@H](CC(=O)O)NC(=O)[C@H](CCCCN)NC(=O)[C@H](CC(=O)O)NC(=O)[C@H](CO)NC(=O)[C@H](CCC(N)=O)NC(=O)[C@H](CS)NC(=O)[C@@H]1CCCN1C(=O)[C@H](CCCCN)NC(=O)[C@@H](N)[C@@H](C)O)C(C)C)C(=O)N[C@@H](CCCNC(=N)N)C(=O)O [NCR13_AlaV5] (H-TKPCQSDKDCKKFACRKPKVPKCAAAACKCVR-OH; N-terminus and C-terminus assumed) | 6 (≈ 21.1 µg/mL)
6 | CC[C@H](C)[C@H](NC(=O)[C@H](CS)NC(=O)[C@H](CCCCN)NC(=O)[C@@H]1CCCN1C(=O)[C@@H](NC(=O)[C@H](CCCCN)NC(=O)[C@@H]1CCCN1C(=O)[C@H](CCCCN)NC(=O)[C@H](CCCNC(=N)N)NC(=O)[C@H](CS)NC(=O)[C@H](C)NC(=O)[C@H](Cc1ccccc1)NC(=O)[C@H](CCCCN)NC(=O)[C@H](CCCCN)NC(=O)[C@H](CS)NC(=O)[C@H](C)NC(=O)[C@H](C)NC(=O)[C@H](C)NC(=O)[C@H](C)NC(=O)[C@H](C)NC(=O)[C@H](CS)NC(=O)[C@@H]1CCCN1C(=O)[C@H](CCCCN)NC(=O)[C@@H](N)[C@@H](C)O)C(C)C)C(=O)N[C@@H](CC(N)=O)C(=O)NCC(=O)N[C@@H](Cc1ccccc1)C(=O)N[C@@H](CS)C(=O)N[C@@H](CCCCN)C(=O)N[C@@H](CS)C(=O)N[C@H](C(=O)N[C@@H](CCCNC(=N)N)C(=O)O)C(C)C [NCR13_AlaV1] (H-TKPCAAAAACKKFACRKPKVPKCINGFCKCVR-OH; N-terminus and C-terminus assumed) | 6 (≈ 20.7 µg/mL)
